These results are taken from US20250213647A1, “CHEMOKINE RECEPTORS AND ALPHA1 ADRENERGIC RECEPTORS/VASOPRESSIN RECEPTORS 1A HETEROMERS AS DRUG TARGETS FOR DISEASE” (UNIVERSITY OF SOUTH FLORIDA, priority 2022, published 2025).

The test system of assay [1] is α1B/D-AR, CCR1, CCR2, CXCR4, CCR8. The experiment in a line: Proximity ligation assay, individual receptors on THP-1 cells. To be noted: 10 μM, 30 min at 37° C., FIG. 6; for cell surface expression of α1B/D-AR, CCR1, CCR2 and CXCR4 (PLA signals): vs vehicle.
Assay [2] deals with CXCR4. The experiment in a line: Chemotaxis assay, THP-1 cells toward CXCL12 (CXCR4-mediated). Type of assay: cell-based, human. To be noted: CXCL12 100 nM, mean±SE, read-out: IC50 for inhibition of CXCR4-mediated chemotaxis. The method, then:
(§1) Cell migration was measured employing the Neuroprobe (Gaithersburg, MD, USA) ChemoTx® Disposable Chemotaxis System. A 96-well Boyden-chamber (30 μL/well, 8 μm pores, 1×10^5 pores/cm^2 pore density) was selected for all chemotaxis experiments. Bottom wells of the Boyden-chamber were loaded with 30 μL of test substances at various concentrations. Top wells of the membrane were loaded with 25 μL of THP-1 cells, THP-1_ADRA1B^KO, wild type THP-1 cells after clonal expansion (=control for THP-1_ADRA1B^KO) or freshly isolated monocytes (200 cells/μL). THP-1 cells were suspended in depleted RPMI1640 (0.5% HyClone™ fetal bovine serum, Sigma); Freshly isolated monocytes were suspended in RPMI1640 (0.5% human platelet poor plasma, Sigma). After 3 hours, transmigrated cells were counted utilizing the Cytation 1 plate reader (BioTek) by direct imaging in high contrast bright field (4×) and post-imaging particle analyses with Gen5 (v3.05) Imaging & Microscopy Software (BioTek). The chemotactic index (CI) was calculated as the ratio of cells that transmigrated in the presence versus the absence of the test solutions.

Assay [3] addresses T1, CCR2 (Homo sapiens, UniProt P41597). The experiment in a line: Chemotaxis assay, THP-1 cells toward CCL2 (CCR2-mediated). Type of assay: cell-based. Further details: host or cells: THP-1. The conditions noted are these: CCL2 10 nM, mean±SE, read-out: IC50 for inhibition of CCR2-mediated chemotaxis. Here is the method: as §1
Assay [4] addresses T1, CCR2. Further details: host or cells: THP-1. To be noted: previous finding (Enten, 2022); cited from earlier work.
The target in assay [5] is T2, heteromerization between α1b-AR and CCR2 (Homo sapiens, UniProt P35368).
T2 sequence (P35368 1-520): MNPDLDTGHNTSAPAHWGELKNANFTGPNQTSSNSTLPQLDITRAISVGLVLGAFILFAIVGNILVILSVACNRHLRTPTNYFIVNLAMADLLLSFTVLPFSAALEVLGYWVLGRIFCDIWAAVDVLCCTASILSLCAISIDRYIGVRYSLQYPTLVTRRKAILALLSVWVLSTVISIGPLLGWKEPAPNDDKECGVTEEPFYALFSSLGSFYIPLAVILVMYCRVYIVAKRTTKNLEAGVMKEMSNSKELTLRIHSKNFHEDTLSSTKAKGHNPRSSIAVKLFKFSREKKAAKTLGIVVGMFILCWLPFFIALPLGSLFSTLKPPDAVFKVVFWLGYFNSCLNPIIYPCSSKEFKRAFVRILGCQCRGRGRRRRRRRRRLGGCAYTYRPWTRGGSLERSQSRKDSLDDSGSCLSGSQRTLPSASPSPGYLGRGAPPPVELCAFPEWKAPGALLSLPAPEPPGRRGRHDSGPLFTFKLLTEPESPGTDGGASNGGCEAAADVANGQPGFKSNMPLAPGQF
The experiment in a line: Saturation BRET to assess receptor heterodimerization (α1b-AR-RlucII / CCR2-EYFP, HEK293T). The conditions noted are these: 10 μM ligand, 5 min; for BRETmax: FIG. 3B; for BRET50 values: FIG. 3C. On the technique in general: BRET reads energy transfer from a luciferase to a nearby fluorophore.

The test system of assay [6] is leukocyte infiltration into dorsal air pouches. The assay can be described thus: Murine air pouch model, leukocyte infiltration. Type of assay: in vivo, C57BL/6 mice. To be noted: co-injected into the air pouch; phenylephrine 10-100 mg/kg, phentolamine 5-50 mg/kg; 24 h; FIG. 9B-D.
Description: All procedures were performed according to the National Institutes of Health Guidelines for Use of Laboratory Animals and were approved by the Institutional Animal Care and Use Committee of the University of South Florida (IS00010570). Male and female C57BL/6 mice (20-25 g) were obtained from Envigo (Indianapolis, IN). Six days prior to the start of the experiments, mice were anesthetized with 1.7% sevoflurane, the dorsal cervical/thoracic region was shaved, disinfected with 70% ethanol and 3 mL of sterile air were injected subcutaneously (s.c.) to create an air pouch. […] 5 ml ice cold lavage fluid was injected into each air pouch using a syringe with a 23-G, 1-inch needle, the air pouch was gently massaged for 60 seconds, the lavage fluid was harvested using the same syringe and needle and the recovered volume was recorded. […] Erythrocytes in the cell pellets were lysed with Invitrogen 1× RBC lysis buffer and the harvested air pouch cells analyzed by flow cytometry.
Harvested air pouch cells were incubated with APC-conjugated anti-mouse CD45 or APC-conjugated immunoglobulin G 2B (IgG2B; isotype control) for 145 min in the dark at room temperature. […] Cells were then washed again, resuspended in PBS, and the cell-associated light scatter and fluorescence were determined with a LSRII instrument (Becton Dickinson). […]
In assay [7] the target is T1, CCR2. The assay can be described thus: Gαi activation assay (TRUPATH BRET), HEK293T cells transfected with CCR2 plus pcDNA3 (CCR2 alone). To be noted: cells transfected with CCR2 alone; 10 μM PE or PT; FIG. 4B, 4E. Type of assay: cell-based. Here is the method: (§2) HEK293T cells were plated in a 6-well plate and transfected with 0.2 μg each of Gαi1-Rluc8, Gβ3 and Gγ9-GFP2 (Trupath) together with 0.2 μg of mouse or human CCR2 with either pcDNA3.1 or α1b-AR. One day after transfection, cells were trypsinized and replated to 96-well poly-L lysine precoated plates. After overnight incubation, cells were replaced with 0.1% glucose/PBS. Prolume Purple (NanoLight Tech.) or coelenterazine 400a in a final concentration of 5 μM were added in experiments with human or mouse CCR2, respectively, and incubated at room temperature for 3 min. Ligands at various concentrations were added to cells and incubated at room temperature for 5 min before luminescence was measured at 410 nm and 515 nm. […] The BRET changes were calculated by subtracting the BRET signal of untreated cells.

The test system of another assay is CCR1. The experiment in a line: Chemotaxis assay, THP-1 cells toward CCL23 (CCR1-mediated). Type of assay: cell-based, human. To be noted: CCL23 10 nM, mean±SE, read-out: IC50 for inhibition of CCR1-mediated chemotaxis. The method, then:
as §1

The target of the next assay is T3, α1b-AR:CCR2 heteromer (Homo sapiens, UniProt P35368+P41597).
T3 construct: expressed in transfected cells; host or cells: HEK293T
T3 sequence (P41597 whole entry, one chain of several): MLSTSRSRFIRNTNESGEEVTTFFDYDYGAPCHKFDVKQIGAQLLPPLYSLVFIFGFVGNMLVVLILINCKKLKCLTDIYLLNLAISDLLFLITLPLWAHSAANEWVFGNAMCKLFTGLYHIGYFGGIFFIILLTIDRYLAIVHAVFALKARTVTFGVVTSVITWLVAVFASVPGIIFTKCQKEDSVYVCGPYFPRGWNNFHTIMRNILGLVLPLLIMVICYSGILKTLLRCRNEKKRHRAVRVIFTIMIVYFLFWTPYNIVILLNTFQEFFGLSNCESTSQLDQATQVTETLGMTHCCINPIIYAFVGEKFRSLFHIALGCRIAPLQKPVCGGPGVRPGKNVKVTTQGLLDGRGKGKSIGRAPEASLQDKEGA
The assay can be described thus: Gαi activation assay (TRUPATH BRET), HEK293T cells transfected with CCR2 plus α1b-AR. Type of assay: cell-based. To be noted: for Gαi1 activation by the ligand alone: cells transfected with α1b-AR alone, CCR2 alone or CCR2 plus α1b-AR, FIG. 4A. Here is the method:
as §2

Assay [8] concerns CXCR4. The conditions noted are these: previous observations (Gao, 2018); cited from earlier work.
For another assay, the system named is CCR8. The experiment in a line: Chemotaxis assay, THP-1 cells toward CCL1 (CCR8-mediated). Type of assay: cell-based, human. Here is the method: as §1
Assay [9] concerns the target T1, CCR2. The experiment in a line: BRET assay for β-arrestin recruitment, HEK293T with CCR2-Rluc and β-arrestin-YFP without α1b-AR. Type of assay: cell-based. To be noted: 10 μM PE, PT or 100 nM INCB3284, FIG. 5C. The method, then: β-arrestin recruitment was measured by BRET, as described (Armando, 2014; Berchiche, 2011). In brief, HEK293T cells were plated in a 6-well plate and transfected with 0.1 μg of CCR2-RluII and 1.9 μg β-arrestin-YFP with 0.1 μg pcDNA3.1 or α1b-AR. One day after transfection, cells were re-plated into 96-well poly-L lysine precoated plates. After overnight incubation, cells were replaced with 0.1% glucose/PBS. Coelenterazine H in a final concentration of 5 μM was added to cells and incubated at room temperature for 3 min. […] The BRET changes were calculated by subtracting the BRET signal of untreated cells.

Structures are written as SMILES.

T1 sequence (P41597 whole entry): as the sequence (P41597 whole entry, one chain of several) above

In general, IC50 refers to the midpoint of a concentration-inhibition curve. For `Cc1ccc(N(CC2=NCCN2)c2cccc(O)c2)cc1` [phentolamine], the “cell surface expression of α1B/D-AR, CCR1, CCR2 and CXCR4 (PLA signals)” value in [1] was “did not affect”. Further, the IC50 was 0.2 ± 0.2 nM in the assay on CXCR4 [2], 2.7 ± 3.5 nM at CCR2 [3] and 0.03 ± 0.08 nM with CCR1. Besides, the “binding affinity of CCR2 for CCL2” value on CCR2 [4] is reported as “did not affect”. In assay [5], the BRETmax entry is reported as “did not affect”. In assay [5], the BRET50 values result is “significantly increased”. In addition, the “leukocyte infiltration induced by LPS, CCL2 or CXCL12” value in assay [6] is on record as “inhibited in a dose-dependent manner”. Moreover, on CCR2 [7], the “effect on CCL2-induced Gαi1 activation” value is “did not affect”. For the same compound, the “bottom plateau, CCL2-induced Gαi activation in the presence of the ligand” value on α1b-AR:CCR2 heteromer (CCL2 plus 10 μM PT, FIG. 4F) is −0.033±0.002. Moreover, the “Gαi1 activation by the ligand alone” value on α1b-AR:CCR2 heteromer is listed as “did not activate Gαi1”. The “CXCR4-mediated chemotaxis of primary human vascular smooth muscle cells” value in the assay with CXCR4 [8] was “inhibit”. For the same compound, the CCR8-mediated chemotaxis result with CCR8 is “did not affect”. Further, the “effect on the CCL2-induced BRET signal (CCR2-Rluc / β-arrestin-YFP)” value on CCR2 [9] is listed as “not affected”.

For `CNC[C@H](O)c1cccc(O)c1` [phenylephrine], the “expression of CCR8 (PLA signals)” value in assay [1] was “not affected”. Moreover, in assay [1], the “cell surface expression of α1B/D-AR, CCR1, CCR2 and CXCR4 (PLA signals)” value is “reduced”. The results for the IC50 with CXCR4 [2], on CCR2 [3] and in the assay with CCR1 were 17 ± 29 nM, 7.5 ± 7.7 nM and 5 ± 6.7 nM, respectively. The “binding affinity of CCR2 for CCL2” value at CCR2 [4] was “did not affect”. Besides, the BRETmax result in [5] is reported as “did not affect”. The BRET50 values entry in [5] is reported as “significantly increased”. Further, the “leukocyte infiltration induced by LPS, CCL2 or CXCL12” value in [6] is recorded as “inhibited in a dose-dependent manner”. In addition, on CCR2 [7], the “effect on CCL2-induced Gαi1 activation” value is recorded as “did not affect”. The “bottom plateau, CCL2-induced Gαi activation in the presence of the ligand” value on α1b-AR:CCR2 heteromer (CCL2 plus 1 μM NE, FIG. 4D) is reported as −0.031±0.002; at α1b-AR:CCR2 heteromer (CCL2 plus 10 μM PE, FIG. 4C), −0.03±0.002. Also, at α1b-AR:CCR2 heteromer, the “Gαi1 activation by the ligand alone” value is “did not activate Gαi1”. Also, the “CXCR4-mediated chemotaxis of primary human vascular smooth muscle cells” value in the assay with CXCR4 [8] was “inhibit”. Moreover, the CCR8-mediated chemotaxis entry in the assay with CCR8 is “did not affect”. Also, the “effect on the CCL2-induced BRET signal (CCR2-Rluc / β-arrestin-YFP)” value at CCR2 [9] was “not affected”.
